Tests used:
Estrogen receptor [1] = target: T1, Estrogen receptor (Homo sapiens, UniProt P03372)
T1 sequence (P03372 whole entry): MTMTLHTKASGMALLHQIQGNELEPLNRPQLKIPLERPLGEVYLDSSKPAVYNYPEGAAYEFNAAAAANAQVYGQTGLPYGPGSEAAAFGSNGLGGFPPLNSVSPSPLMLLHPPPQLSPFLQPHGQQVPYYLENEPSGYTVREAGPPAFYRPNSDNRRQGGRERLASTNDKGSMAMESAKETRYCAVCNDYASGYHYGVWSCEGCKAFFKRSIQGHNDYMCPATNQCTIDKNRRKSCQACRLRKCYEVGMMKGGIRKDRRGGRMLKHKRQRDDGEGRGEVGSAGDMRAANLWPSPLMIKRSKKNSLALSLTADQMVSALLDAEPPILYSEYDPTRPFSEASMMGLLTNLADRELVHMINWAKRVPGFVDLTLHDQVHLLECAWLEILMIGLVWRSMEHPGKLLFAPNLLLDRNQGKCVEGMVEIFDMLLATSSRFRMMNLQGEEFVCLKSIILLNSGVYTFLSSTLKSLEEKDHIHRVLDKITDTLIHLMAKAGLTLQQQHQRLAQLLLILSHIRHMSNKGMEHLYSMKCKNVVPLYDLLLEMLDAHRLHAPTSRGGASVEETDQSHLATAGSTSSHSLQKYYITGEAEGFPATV
Description: Binding affinity to human ERalpha

Estrogen receptor [2] = target: T1, Estrogen receptor; type: functional, cell-based, HEK293
Description: Effect on transactivation of ALP gene expression in HEK293 cells transfected with hERalpha

Estrogen receptor beta [3] = target: T2, Estrogen receptor beta (Homo sapiens, UniProt Q92731); type: functional, cell-based, HEK293
T2 sequence (Q92731 whole entry): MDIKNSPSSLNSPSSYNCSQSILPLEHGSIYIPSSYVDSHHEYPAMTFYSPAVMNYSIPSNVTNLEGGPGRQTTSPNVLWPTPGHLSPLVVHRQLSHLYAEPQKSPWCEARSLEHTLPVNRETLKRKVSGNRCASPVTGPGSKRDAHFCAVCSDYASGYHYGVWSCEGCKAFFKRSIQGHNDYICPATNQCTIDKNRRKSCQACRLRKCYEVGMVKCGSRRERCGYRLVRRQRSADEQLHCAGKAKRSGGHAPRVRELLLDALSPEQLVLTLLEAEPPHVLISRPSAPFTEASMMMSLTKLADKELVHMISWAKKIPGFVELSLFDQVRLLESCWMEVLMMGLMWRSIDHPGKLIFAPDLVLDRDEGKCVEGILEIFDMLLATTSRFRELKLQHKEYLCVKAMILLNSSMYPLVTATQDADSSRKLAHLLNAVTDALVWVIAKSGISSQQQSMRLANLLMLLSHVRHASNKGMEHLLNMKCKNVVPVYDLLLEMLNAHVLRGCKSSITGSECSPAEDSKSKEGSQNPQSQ
Description: Effect on transactivation of ALP gene expression in HEK293 cells transfected with hERbeta

Estrogen receptor beta [4] = target: T2, Estrogen receptor beta
Description: Binding affinity to human ERbeta

Androgen receptor = target: T3, Androgen receptor (Homo sapiens, UniProt P10275)
T3 sequence (P10275 whole entry): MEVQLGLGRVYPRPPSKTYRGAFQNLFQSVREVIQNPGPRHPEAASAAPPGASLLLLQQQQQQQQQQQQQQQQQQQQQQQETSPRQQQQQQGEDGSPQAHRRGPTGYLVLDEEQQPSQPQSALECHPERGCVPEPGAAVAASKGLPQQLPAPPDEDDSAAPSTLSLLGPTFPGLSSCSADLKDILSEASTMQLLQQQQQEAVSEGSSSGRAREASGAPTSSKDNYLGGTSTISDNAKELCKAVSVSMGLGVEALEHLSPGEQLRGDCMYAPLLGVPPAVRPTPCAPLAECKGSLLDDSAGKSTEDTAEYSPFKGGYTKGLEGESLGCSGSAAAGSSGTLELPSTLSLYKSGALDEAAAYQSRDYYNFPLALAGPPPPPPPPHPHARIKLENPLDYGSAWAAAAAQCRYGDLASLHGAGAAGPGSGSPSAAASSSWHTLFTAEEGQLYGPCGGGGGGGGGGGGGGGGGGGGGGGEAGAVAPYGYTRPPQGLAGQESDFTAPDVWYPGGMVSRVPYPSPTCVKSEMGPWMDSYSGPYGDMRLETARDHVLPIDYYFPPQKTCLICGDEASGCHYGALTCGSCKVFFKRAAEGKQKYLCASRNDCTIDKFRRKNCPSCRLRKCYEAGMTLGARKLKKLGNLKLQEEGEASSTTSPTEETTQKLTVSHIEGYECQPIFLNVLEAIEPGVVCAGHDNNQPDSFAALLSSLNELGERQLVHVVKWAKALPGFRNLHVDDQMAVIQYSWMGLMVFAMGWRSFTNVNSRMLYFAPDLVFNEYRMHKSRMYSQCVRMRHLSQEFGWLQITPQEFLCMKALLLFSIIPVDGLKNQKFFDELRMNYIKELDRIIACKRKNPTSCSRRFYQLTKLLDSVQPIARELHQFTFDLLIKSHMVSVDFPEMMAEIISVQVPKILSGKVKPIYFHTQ
Description: Inhibitory activity against AR

Compound	IC50 (Estrogen receptor [1]) [nM]	EC50 (Estrogen receptor [2]) [nM]	EC50 (Estrogen receptor beta [3]) [nM]	IC50 (Estrogen receptor beta [4]) [nM]	IC50 (Androgen receptor) [nM]
C[C@]12CCC3C(CC=C4C[C@@H](O)CC[C@@]43CC=O)C1CC[C@@H]2O (stereo partly specified)	> 1000	> 1000	> 1000	1620	> 5000
CCC[C@]12CC[C@H](O)CC1=CCC1C2CC[C@@]2(C)C1CC[C@@H]2O (stereo partly specified)	5160			132	1770
C[C@]12CCC3C(CC=C4C[C@@H](O)CC[C@@]43/C=C\Cl)C1CC[C@@H]2O (stereo partly specified)	6690	> 1000	91	83	172
CC#C[C@]12CC[C@H](O)CC1=CCC1C2CC[C@@]2(C)C1CC[C@@H]2O (stereo partly specified)	> 8420	1000	171	381	3730
C[C@]12CCC3C(CC=C4C[C@@H](O)CC[C@@]43/C=C\F)C1CC[C@@H]2O (stereo partly specified)	4280	622	3.8	25	11
C[C@]12CCC3C(CC=C4C[C@@H](O)CC[C@@]43/C=C/F)C1CC[C@@H]2O (stereo partly specified)	4160	324	8.7	22	85
C/C=C/[C@]12CC[C@H](O)CC1=CCC1C2CC[C@@]2(C)C1CC[C@@H]2O (stereo partly specified)	1160	47	39	96	843
C#CC[C@]12CC[C@H](O)CC1=CCC1C2CC[C@@]2(C)C1CC[C@@H]2O (stereo partly specified)	4640	984	153	286	1720
C=C[C@]12CCC(=O)C=C1CCC1C2CC[C@@]2(C)C1CC[C@@H]2O (stereo partly specified)	> 10000	> 1000	379	782	7.9
C[C@]12CCC3C(CC=C4C[C@@H](O)CC[C@@]43/C=C/Br)C1CC[C@@H]2O (stereo partly specified)	3980	> 1000	67	210	120
CO/C=C/[C@]12CC[C@H](O)CC1=CCC1C2CC[C@@]2(C)C1CC[C@@H]2O (stereo partly specified)	> 10000	583	827	1300	4620
C=C[C@]12CC[C@H](O)CC1=CCC1C2CC[C@@]2(C)C1CC[C@]2(C)O (stereo partly specified)	1050	494	31	25	169
C=CC[C@]12CC[C@H](O)CC1=CCC1C2CC[C@@]2(C)C1CC[C@@H]2O (stereo partly specified)	1740	1000	148	128	1770
CC/C=C\[C@]12CC[C@H](O)CC1=CCC1C2CC[C@@]2(C)C1CC[C@@H]2O (stereo partly specified)	3040	719	252	361	3770
C[C@]12CCC3C(CC=C4C[C@@H](O)CC[C@@]43/C=C/Cl)C1CC[C@@H]2O (stereo partly specified)	5600	603	68	122	1440
C=C[C@]12CC[C@H](O)CC1=CCC1C2CC[C@@]2(C)C1CC[C@@H]2O (stereo partly specified)	2240	982	4.1	11	33
C[C@]12CCC3C(CC=C4C[C@@H](O)CC[C@@]43/C=C\Br)C1CC[C@@H]2O (stereo partly specified)	> 10000	> 1000	96	212	20
CO/C=C\[C@]12CC[C@H](O)CC1=CCC1C2CC[C@@]2(C)C1CC[C@@H]2O (stereo partly specified)	3350	3240	188	303	1400
C[C@]12CCC3C(CC=C4C[C@@H](O)CC[C@@]43C=O)C1CC[C@@H]2O (stereo partly specified)	> 10000	844	78	230	> 5000
CC[C@]12CC[C@H](O)CC1=CCC1C2CC[C@@]2(C)C1CC[C@@H]2O (stereo partly specified)	2330			16	33
C[C@]12CCC3C(CC=C4C[C@@H](O)CC[C@@]43CO)C1CC[C@@H]2O (stereo partly specified)	6320	> 1000	> 641	1750	> 5000
C/C=C\[C@]12CC[C@H](O)CC1=CCC1C2CC[C@@]2(C)C1CC[C@@H]2O (stereo partly specified)	1960	344	21	16	
C#CC1(O)CCC2C3CC=C4C[C@@H](O)CC[C@]4(C=C)C3CC[C@@]21C (single isomer, unassigned)	147	10	24	14	287
C#CC12CC[C@H](O)CC1=CCC1C2CC[C@@]2(C)C1CC[C@@H]2O (single isomer, unassigned)	425	160	8	17	1760
C[C@]12CC[C@H]3[C@@H](CCC4=CC(=O)CC[C@@]43C)[C@@H]1CC[C@@H]2O [TESTOSTERONE]				> 10000	

Reference: ChEMBL document CHEMBL1149417 (Bioorg Med Chem Lett, 2006)
